# Measured values: patent US8309558B2, “Compounds for the treatment of hepatitis C” (Bristol-Myers Squibb Company, priority 2008, dated 2012)
# pEC50, pIC50: −log10 of the molar value. Like-named read-outs stand apart in the source and are kept apart here.
# How the values were obtained:
# HCV replicon cells = experiment: HCV replicon FRET / luciferase assay (96-well plates); format: cell-based; conditions: Hepatitis C virus, HCV replicon, read-out: EC50
# How it was run: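 Trypsinized replicon cells were seeded with compound titrations and incubated at 37 °C for various times. Alamar blue was added to gauge toxicity. Plates were then rinsed and either lysed with FRET peptide reagent for kinetic fluorescence reading or switched to phenol red-free DMEM for luciferase measurement.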
# [1] = target: T1, HCV NS5B RdRp genotype 1b (Hepatitis C virus genotype 1b, UniProt Q9WMX2); experiment: Standard HCV NS5B RdRp enzyme assay; format: biochemical; conditions: HCV NS5B RdRp genotype 1b, read-out: IC50
# T1 construct: The protein was expressed with an 18 amino acid C-terminal truncation to enhance the solubility; made in house; host or cells: E. coli BL21(DE3), pET21a vector
# Procedure: HCV NS5B RdRp cloning, expression, and purification. The cDNA encoding the NS5B protein of HCV, genotype 1b, was cloned into the pET21a expression vector. The protein was expressed with an 18 amino acid C-terminal truncation to enhance the solubility. The E. coli competent cell line BL21(DE3) was used for expression of the protein. Cultures were grown at 37° C. for ˜4 hours until the cultures reached an optical density of 2.0 at 600 nm. The cultures were cooled to 20° C. and induced with 1 mM IPTG. Fresh ampicillin was added to a final concentration of 50 μg/ml and the cells were grown overnight at 20° C.
# Cell pellets (3 L) were lysed for purification to yield 15-24 mgs of purified NS5B. The lysis buffer consisted of 20 mM Tris-HCl, pH 7.4, 500 mM NaCl, 0.5% triton X-100, 1 mM DTT, 1 mM EDTA, 20% glycerol, 0.5 mg/ml lysozyme, 10 mM MgCl2, 15 ug/ml deoxyribonuclease I, and Complete TM protease inhibitor tablets (Roche). After addition of the lysis buffer, frozen cell pellets were resuspended using a tissue homogenizer. To reduce the viscosity of the sample, aliquots of the lysate were sonicated on ice using a microtip attached to a Branson sonicator. The sonicated lysate was centrifuged at 100,000×g for 1 hr at 4° C. and filtered through a 0.2 μm filter unit (Corning).
# The protein was purified using three sequential chromatography steps: Heparin sepharose CL-6B, polyU sepharose 4B, and Hitrap SP sepharose (Pharmacia). The chromatography buffers were identical to the lysis buffer but contained no lysozyme, deoxyribonuclease I, MgC12 or protease inhibitor and the NaCl concentration of the buffer was adjusted according to the requirements for charging the protein onto the column. Each column was eluted with a NaCl gradient which varied in length from 5-50 column volumes depending on the column type. After the final chromatography step, the resulting purity of the enzyme is >90% based on SDS-PAGE analysis. The enzyme was aliquoted and stored at −80° C.
# Standard HCV NS5B RdRp enzyme assay. HCV RdRp genotype 1b assays were run in a final volume of 60 μl in 96 well plates (Costar 3912). The assay buffer composed of 20 mM Hepes, pH 7.5, 2.5 mM KCl, 2.5 mM MgCl2, 1 mM DTT, 1.6 U RNAse inhibitor (Promega N2515), 0.1 mg/ml BSA (Promega R3961), and 2% glycerol. All compounds were serially diluted (3-fold) in DMSO and diluted further in water such that the final concentration of DMSO in the assay was 2%. HCV RdRp genotype 1b enzyme was used at a final concentration of 28 nM. A polyA template was used at 6 nM, and a biotinylated oligo-dT12 primer was used at 180 nM final concentration. Template was obtained commercially (Amersham 27-4110). Biotinylated primer was prepared by Sigma Genosys. 3H-UTP was used at 0.6 μCi (0.29 μM total UTP). Reactions were initiated by the addition of enzyme, incubated at 30° C. for 60 min, and stopped by adding 25 μl of 50 mM EDTA containing SPA beads (4 μg/μl, Amersham RPNQ 0007). Plates were read on a Packard Top Count NXT after >1 hr incubation at room temperature.
# IC50 values for compounds were determined using seven different [I]. IC50 values were calculated from the inhibition using the formula y=A+((B−A)/(1+((C/x)^D))).
# [2] = untitled table after Table 1b, values without asterisk
# T1 sequence (Q9WMX2 2420-2992): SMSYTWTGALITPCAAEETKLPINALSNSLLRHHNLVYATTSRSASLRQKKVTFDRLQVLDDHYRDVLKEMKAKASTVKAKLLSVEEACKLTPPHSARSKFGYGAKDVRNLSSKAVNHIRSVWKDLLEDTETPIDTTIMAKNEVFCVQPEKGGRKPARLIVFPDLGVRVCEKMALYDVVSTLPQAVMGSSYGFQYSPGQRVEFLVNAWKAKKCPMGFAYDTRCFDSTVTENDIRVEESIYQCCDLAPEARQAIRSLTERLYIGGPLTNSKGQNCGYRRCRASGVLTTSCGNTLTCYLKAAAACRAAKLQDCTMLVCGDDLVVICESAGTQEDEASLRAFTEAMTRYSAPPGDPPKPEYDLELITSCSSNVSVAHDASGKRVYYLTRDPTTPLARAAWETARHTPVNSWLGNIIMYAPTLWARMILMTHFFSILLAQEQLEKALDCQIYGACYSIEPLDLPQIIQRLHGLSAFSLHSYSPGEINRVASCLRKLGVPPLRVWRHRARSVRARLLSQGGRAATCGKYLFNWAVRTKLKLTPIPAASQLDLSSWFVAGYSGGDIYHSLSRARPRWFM
Compound,pEC50 (HCV replicon cells; Table 1b),pIC50 ([1]; Table 1b),pEC50 (HCV replicon cells; Table 1a),pIC50 ([1]; Table 1a),other results
CNC(=O)c1c(-c2ccc(F)cc2)oc2ccc(-c3cc(OCc4nnc(C)o4)cc(C(=O)NCC(C)C)c3)cc12,5.00 to 6.00,> 6.60,–,–,–
CNC(=O)c1c(-c2ccc(F)cc2)oc2ccc(-c3cccc(NC(C)=O)c3)cc12,–,–,5.00 to 6.00,5.00 to 6.00,–
CNC(=O)c1c(-c2ccc(F)cc2)oc2ccc(-c3cc(C(=O)NC(C)(C)c4ccccc4)ccc3OC)cc12 [drawing 355],> 6.60,> 6.60,–,–,–
CNC(=O)c1c(-c2ccc(F)cc2)oc2ccc(-c3cccc(C(=O)NC(CCO)c4ccccc4)c3)cc12 (stereo not shown),–,–,6.00 to 6.60,> 6.60,–
CNC(=O)c1c(-c2ccc(F)cc2)oc2ccc(-c3ccc(OC)nc3)cc12,–,–,< 5.91,< 5.00,–
CNC(=O)c1c(-c2ccc(F)cc2)oc2ccc(-c3cc(OCCc4ccncc4)cc(C(=O)NCC(C)C)c3)cc12,< 6.30,> 6.60,–,–,–
CNC(=O)c1c(-c2ccc(F)cc2)oc2ccc(-c3cc(C(=O)NC4(c5ccccc5Cl)CC4)ccc3Cl)cc12,> 6.60,6.00 to 6.60,–,–,–
CNC(=O)c1c(-c2ccc(F)cc2)oc2ccc(-c3ccc(-c4ccccc4NC(C)=O)c(C(=O)NCC(C)C)c3)cc12,5.00 to 6.00,6.00 to 6.60,–,–,–
CNC(=O)c1c(-c2ccc(F)cc2)oc2ccc(-c3ccc(Cl)c(C(=O)NC4(c5ccccn5)CC4)c3)cc12,< 5.00,6.00 to 6.60,–,–,–
CCC(CC)(NC(=O)c1ccc(Cl)c(-c2ccc3oc(-c4ccc(F)cc4)c(C(=O)NC)c3c2)c1)c1ccccc1,> 6.60,> 6.60,–,–,–
CNC(=O)c1c(-c2ccc(F)cc2)oc2cc(NS(C)(=O)=O)c(-c3cc(C(=O)NC4(c5ccccc5)CC4)ccc3C)cc12,> 6.60,> 6.60,–,–,–
CNC(=O)c1c(-c2ccc(F)cc2)oc2ccc(-c3cccc(C(=O)Nc4cccc(CC(=O)O)c4)c3)cc12,–,–,< 5.00,> 6.60,–
CNC(=O)c1c(-c2ccc(F)cc2)oc2ccc(-c3cc(C(=O)NC4(c5ccccn5)CC4)ccc3C(F)(F)F)cc12,> 6.60,> 6.60,–,–,–
CNC(=O)c1c(-c2ccc(F)cc2)oc2ccc(-c3cccc(C(N)=O)c3)cc12,–,–,< 5.43,5.00 to 6.00,–
CNC(=O)c1c(-c2ccc(F)cc2)oc2ccc(-c3cccc(-c4nc(-c5ccccc5)no4)c3)cc12,> 6.60,< 5.00,–,–,–
CNC(=O)c1c(-c2ccc(F)cc2)oc2ccc(-c3cc(OCC4CC4)cc(C(=O)NCC(C)C)c3)cc12,6.00 to 6.60,< 5.00,–,–,–
CNC(=O)c1c(-c2ccc(F)cc2)oc2ccc(-c3cc(C(=O)O)c(C)cc3C)c(F)c12,< 5.00,5.00 to 6.00,–,–,–
CNC(=O)c1cccc(-c2ccc3oc(-c4ccc(F)cc4)c(C(=O)NC)c3c2)c1,–,–,6.00 to 6.60,5.00 to 6.00,–
CNC(=O)c1c(-c2ccc(F)cc2)oc2cc(N(CCO)S(C)(=O)=O)c(-c3cc(C(=O)NC4(c5ccccc5)CC4)ccc3C)cc12,> 6.60,> 6.60,–,–,–
CNC(=O)c1c(-c2ccc(F)cc2)oc2ccc(-c3ccc(C(=O)NCC(C)C)cc3)cc12,–,–,6.00 to 6.60,< 5.00,–
CNC(=O)c1c(-c2ccc(F)cc2)oc2ccc(-c3ccc(-c4ccccc4Cl)c(C(=O)NCC(C)C)c3)cc12,> 6.60,> 6.60,–,–,–
CNC(=O)c1c(-c2ccc(F)cc2)oc2ccc(-c3cc(C(=O)NC4(c5nnc(C(F)(F)F)[nH]5)CC4)ccc3C)cc12,> 6.60,> 6.60,–,–,–
CN1CN(C)c2c(-c3cccc(C(N)=O)c3)ccc3oc(-c4ccc(F)cc4)c(c23)C1=O [drawing 619],–,–,–,–,pEC50 (HCV replicon cells; [2]): 4.86; pIC50 ([1]; untitled table after Table 1b): < 4.90
CNC(=O)c1c(-c2ccc(F)cc2)oc2ccc(-c3cccc(C(=O)N[C@@H](C)C(=O)OC)c3)cc12,–,–,5.00 to 6.00,> 6.60,–

Compound,pEC50 (HCV replicon cells; Table 1b),pIC50 ([1]; Table 1b),pEC50 (HCV replicon cells; Table 1a),pIC50 ([1]; Table 1a),other results
CNC(=O)c1c(-c2ccc(F)cc2)oc2ccc(-c3cccc(C(=O)N4CCCC(O)C4)c3)cc12 (stereo not shown),–,–,5.00 to 6.00,5.00 to 6.00,–
CNC(=O)c1c(-c2ccc(F)cc2)oc2ccc(-c3cccc(C(=O)OC)c3)cc12,–,–,< 5.43,< 5.00,–
CNC(=O)c1c(-c2ccc(F)cc2)oc2ccc(-c3cccc(C(=O)NC(CO)C(=O)OC)c3)cc12 (stereo not shown),–,–,5.00 to 6.00,6.00 to 6.60,–
CNC(=O)c1c(-c2ccc(F)cc2)oc2ccc(-c3cccc(C(=O)N[C@H]4CCC[C@H]4c4ccc(Cl)cc4)c3)cc12 [drawing 612],–,–,–,–,pEC50 (HCV replicon cells; [2]): 5.95; pIC50 ([1]; untitled table after Table 1b): < 4.90
CNC(=O)c1c(-c2ccc(F)cc2)oc2ccc(-c3cccc(C(=O)Nc4ccccc4O)c3)cc12,–,–,> 6.60,> 6.60,–
CNC(=O)c1c(-c2ccc(F)cc2)oc2ccc(-c3ccc(C(=O)NC(C)(C)C)cc3)cc12,–,–,6.00 to 6.60,5.00 to 6.00,–
CNC(=O)c1ccc(-c2ccc3oc(-c4ccc(F)cc4)c(C(=O)NC)c3c2)cc1,–,–,< 5.43,< 5.00,–
CNC(=O)c1c(-c2ccc(F)cc2)oc2ccc(-c3ccc(CCC(=O)O)cc3)cc12,–,–,< 5.00,5.00 to 6.00,–
CNC(=O)c1c(-c2ccc(F)cc2)oc2ccc(-c3cc(C(=O)NCC(C)C)ccc3OCCC(N)=O)cc12,< 5.00,< 5.00,–,–,–
CNC(=O)c1c(-c2ccc(F)cc2)oc2ccc(-c3cc(C(=O)NCC(C)C)ccc3O)cc12,–,–,> 6.60,> 6.60,–
CNC(=O)c1c(-c2ccc(F)cc2)oc2ccc(-c3cccc(C(=O)NCC4CCCO4)c3)cc12 (stereo not shown),–,–,6.00 to 6.60,> 6.60,–
CNC(=O)c1c(-c2ccc(F)cc2)oc2ccc(-c3cccc(C(=O)N4CCCC4C)c3)cc12 (stereo not shown),–,–,5.00 to 6.00,6.00 to 6.60,–
CNC(=O)c1c(-c2ccc(F)cc2)oc2ccc(-c3cccc(C(=O)NC(C)(C)C)c3)cc12,–,–,> 6.60,> 6.60,–
CNC(=O)c1c(-c2ccc(F)cc2)oc2ccc(-c3ccc(C(=O)N4CCCC4)cc3)cc12,–,–,5.00 to 6.00,5.00 to 6.00,–
CNC(=O)c1c(-c2ccc(F)cc2)oc2ccc(-c3cc(C(=O)NCC(C)C)cc(-c4ccccc4)c3)cc12,< 5.00,< 5.00,–,–,–
CCCC[C@H](CO)NC(=O)c1cccc(-c2ccc3oc(-c4ccc(F)cc4)c(C(=O)NC)c3c2)c1 [drawing 232],–,–,5.00 to 6.00,6.00 to 6.60,–
CNC(=O)c1c(-c2ccc(F)cc2)oc2ccc(-c3ccc(F)cc3Cl)cc12,–,–,< 5.00,< 5.00,–
CNC(=O)c1c(-c2ccc(F)cc2)oc2ccc(-c3cccc(C(=O)NC(C)CC(=O)O)c3)cc12 (stereo not shown),–,–,< 5.00,6.00 to 6.60,–
CNC(=O)c1c(-c2ccc(F)cc2)oc2ccc(-c3cccc(C(=O)NCc4ccccc4O)c3)cc12,–,–,5.00 to 6.00,6.00 to 6.60,–
CNC(=O)c1c(-c2ccc(F)cc2)oc2ccc(-c3cccc(C(=O)NCCC(C)(C)C)c3)cc12,–,–,> 6.60,> 6.60,–
CNC(=O)c1c(-c2ccc(F)cc2)oc2ccc(-c3cccc(C(=O)NC(C)(C)c4ccccc4)c3)c(NC(C)=O)c12,–,–,5.00 to 6.00,5.00 to 6.00,–
CNC(=O)c1c(-c2ccc(F)cc2)oc2ccc(-c3cc(C(=O)NC4(c5cnccn5)CC4)c(OC)cc3C)cc12,–,–,–,–,"pEC50 (HCV replicon cells; 24 h, Table 1d (class symbols)): 6.60 to 9.00; pIC50 ([1]; Table 1d (class symbols)): 6.60 to 9.00"
CNC(=O)c1c(-c2ccc(F)cc2)oc2ccc(-c3cccc(C(=O)NC4(c5ccccc5)CC4)c3OC)cc12,< 5.00,< 5.00,–,–,–
